Source: PMC12652428, “In Vitro and In Silico Evaluation of a Novel Multifunctional Cyclic Peptide with Antioxidant, Tyrosinase-Inhibitory, and Extracellular Matrix-Modulating Activities” (International Journal of Molecular Sciences, 2025)
Where a SMILES comes first, the peptide text is derived from it.

Tests used:
mushroom tyrosinase = experiment: Tyrosinase inhibition assay; assay type: biochemical
Procedure: To assess tyrosinase inhibitory activity, serial dilutions of the synthesized peptide and the positive control, β-arbutin, were prepared. In a 96-well plate, 10 μL of sample solution was mixed with 110 μL of 0.10 M sodium phosphate buffer (pH 6.5), followed by the addition of 10 μL of mushroom tyrosinase solution (1500 U/mL) and 20 μL of 1.50 mM L-tyrosine. The reaction mixture was then incubated at 37 °C for 10 min. The absorbance was measured at an appropriate wavelength (475 nm) using a microplate reader and the percentage of tyrosinase inhibition was calculated using Equation (3).
Tyrosinase inhibition (%):(3) 100−b−b^′/a−a^′×100
(§1) a: Absorbance after reaction of stock solution.
(§2) b: Absorbance after reaction of sample solution.
a′, b′: Absorbance measured by substituting the buffer for mushroom tyrosinase.

MMP-1 = experiment: UV-induced MMP-1 expression inhibition (ELISA) in human dermal fibroblasts CCD-986sk; assay type: cell-based
Procedure: To evaluate the inhibitory effect on MMP-1 expression, TGF-β1 (10 ng/mL) was used as the positive control. CCD-986sk cells were seeded into 24-well culture plates at a density of 1.5 × 10^4 cells/well and cultured for 24 h in IMDM supplemented with 10% FBS and 1% penicillin–streptomycin. The cells were then incubated in serum-free IMDM for 6 h to induce starvation, washed with 1 mL of DPBS, and irradiated with UV (5 J/cm^2). UV irradiation (5 J/cm^2) was performed under non-cytotoxic conditions previously reported to induce MMP-1 expression. The test samples were diluted in serum-free IMDM, applied to the cells, and incubated for 48 h.
MMP-1 Expression Inhibition (%):(4) 100−b/a×100
(§3) a: Expression of the corrected untreated group.
(§4) b: Expression of the corrected sample treatment group.
(§5) Protein content was measured using a Pierce BCA Protein Assay kit. After cell culture, 20 μL of the culture medium was mixed with 200 μL of the Pierce BCA Protein Assay reagent mixture and incubated at 37 °C for 30 min. The absorbance was then measured at 570 nm. The protein concentration was determined using an Albumin Standard as a reference.

[1] = DPPH radical-scavenging assay
Procedure: To assess the antioxidant activity of the test samples, serial dilutions of the synthesized peptides were prepared, using ascorbic acid as a positive control. Each reaction mixture consisted of 12.5 μL of the sample solution, 50 μL of ethanol, and 62.5 μL of 0.10 mM DPPH solution. The mixtures were incubated for 30 min at 4 °C in the dark. After the reaction, the absorbance was measured at 520 nm using a multimode microplate reader. The free radical-scavenging activity (%) was calculated using Equation (2).
Radical-scavenging activity (%):(2) 100−b−b^′/a−a^′×100
as §1, §2
a′, b′: Absorbance measured by substituting the buffer for 0.10 mM DPPH.

type I procollagen = experiment: Type I procollagen expression (ELISA) in human fibroblasts; assay type: cell-based
Procedure: ELISA was performed using a Type I Procollagen C-Peptide EIA Kit. Antibody-POD Conjugate solution (100 μL/well) was dispensed into the provided well strips, followed by the addition of 20 μL/well of standard solution or sample. After mixing, the plates were incubated at 37 °C for 3 h. Following incubation, the supernatants were discarded and wells were washed four times with wash buffer. Subsequently, 100 μL/well of Substrate Solution (TMBZ) was added and incubated at room temperature for 15 min, after which 100 μL/well of stop solution was added to terminate the reaction. Absorbance was measured at 450 nm using a multiplate reader. The expression levels of type I procollagen were compared and stimulation rate was calculated according to Equation (5).
Type I Procollagen Expression Promotion Rate (%):(5) 100−b/a×100
as §3, §4, §5

tyrosinase inhibition rate (mushroom tyrosinase; 800 μg/mL, L-tyrosine substrate, pH 6.5, 37 °C, 10 min, 475 nm)	tyrosinase inhibition, concentration dependence (mushroom tyrosinase; 12.50 to 800 μg/mL, p < 0.05)	IC50 (mushroom tyrosinase; n = 3, L-tyrosine substrate, pH 6.5, 37 °C, 10 min, 475 nm, molar value printed beside 104.2 µg/mL)	tyrosinase inhibition IC50 (mushroom tyrosinase; n = 3, L-tyrosine substrate, pH 6.5, 37 °C, 10 min, 475 nm, tested 12.50 to 800 μg/mL)	SMILES	tyrosinase inhibition IC50 (positive control) (mushroom tyrosinase; tested 31.25 to 500 μg/mL, L-tyrosine substrate, pH 6.5, 37 °C, 10 min, 475 nm)	inhibition of MMP-1 expression (MMP-1; 400 μg/mL, UV 5 J/cm^2, 48 h, CCD-986sk, ELISA, vs UV-treated control)	MMP-1 inhibition compared with TGF-β1 (MMP-1; 400 µg/mL, same experimental conditions, TGF-β1 10 ng/mL)	UV-induced MMP-1 expression (MMP-1; 200–400 μg/mL, vs UV-treated control, p < 0.05)	MMP-1 expression inhibition IC50 (MMP-1; n = 5, UV 5 J/cm^2, 48 h, CCD-986sk, ELISA)	tyrosinase inhibition compared with β-arbutin (mushroom tyrosinase; comparable concentrations)	DPPH radical scavenging rate ([1]; 200 μg/mL, 30 min at 4 °C in the dark, 520 nm)	DPPH scavenging, concentration dependence ([1]; 3.13 to 200 μg/mL, p < 0.05)	DPPH radical scavenging activity ([1]; concentrations above 25 μg/mL, 30 min at 4 °C in the dark, 520 nm)	type I procollagen expression, higher than positive control TGF-β1 (type I procollagen; 400 μg/mL, compared with TGF-β1)	increase in type I procollagen expression vs untreated control (type I procollagen; 400 μg/mL, human fibroblasts, ELISA (Procollagen Type I C-Peptide EIA), p < 0.05)	type I procollagen increase compared with TGF-β1 (type I procollagen; 400 µg/mL, same experimental conditions)	type I procollagen expression (type I procollagen; 100–400 μg/mL, p < 0.05)
				OC[C@H]1O[C@@H](Oc2ccc(O)cc2)[C@H](O)[C@@H](O)[C@@H]1O [β-arbutin, reference compound]	160.12 µg/mL												
97.79%	concentration-dependent inhibition	184 ± 9.4 µM	104.2 ± 5.3 µg/mL	N=C(N)NCCC[C@@H]1NC(=O)[C@H](CO)NC(=O)CNC(=O)[C@H](Cc2ccc(O)cc2)NC(=O)[C@H](CS)NC1=O [CR5, cyclic CYGSR] (cyclo(CYGSR))		73.55%	stronger efficacy than TGF-β1	significantly reduced MMP-1 expression	261.3 ± 12.0 µg/mL	stronger tyrosinase inhibition than β-arbutin	83.18%	concentration-dependent scavenging effects	more than 50%	approximately 30.12%	approximately 44.68%	stronger efficacy than TGF-β1	promoted type I procollagen expression in a concentration-dependent manner
